These results are taken from US20170182070A1, “Controlled Release Doxycycline” (Mayne Pharma International Pty Ltd., priority 2014, published 2017).

Structures can show the parent of a compound that is named as a salt. Where two headings read alike, the source gives them in different places.

Series [1] is described as follows: In vitro dissolution/release profile, USP <711> Apparatus 1 (baskets). It counts as physicochemical. The procedure: For the purposes of in vitro testing, a release or dissolution profile may be determined at pH 1.2 using a 0.06 N hydrochloric acid solution, at pH 4.5 using a phosphate buffer using USP <711> test conditions, and at pH 5.0 using a buffer using USP <711> test conditions. Such test conditions can be carried out according to USP <711> dissolution conditions using Apparatus 1 (baskets) in 900 mL of media with stirring at 50 RPM. The in vitro release of the pellets was tested using USP XXIV 2000—Apparatus 1 (baskets). See, e.g., Riaz Uddin, Nadia Saffoon, and Kumar Bishwajit Sutradhar, “Dissolution and Dissolution Apparatus: A Review,” Int. J. Cur. Biomed. Phar. Res., 2011, Vol. 1(4), pgs. 201-207. The acid environment dissolution profile of pellet A and B's formulation can be seen in FIG. 1. The dissolution profile of pellet A and B formulations at elevated pH can be seen in FIG. 2.

A short description of series [2]: Physicochemical properties of doxycycline forms.
The next series has as its system Plasmodium falciparum. As to conditions: cited from earlier work.
For series [3] the following is noted: cited from earlier work.
The conditions of series [4]: cited from earlier work. The source holds these as a separate data set.
Series [5] in a line: Population pharmacokinetic model of doxycycline plasma concentrations, pooled phase 1 data (Example 8). The class given is in vivo, human. The procedure: Pharmacokinetic data were available from eight phase 1 clinical trials conducted by Mayne Pharma International. These studies assessed doxycycline plasma concentrations following oral administration of either a 100 mg conventional release doxycycline hyclate capsule, a 75/100/150 or 200 mg Doryx® Delayed-Release tablet or a 120 mg Doryx MPC® Delayed-Release tablet in healthy subjects. For the remainder of the Specification's Example 8, conventional release doxycycline hyclate capsules will be referred to as Doryx capsules, the Doryx® Delayed-Release tablets will be referred to as Doryx tablets, and Doryx MPC® Delayed-Release tablets (formulation code MP336) will be referred to as Doryx MPC.
The available phase 1 clinical trials included six single dose two treatment period studies assessing the influence of formulation or the fed/fasted state on doxycycline concentrations. Two trials were multi-dose studies; with one a single treatment period study and the other a two treatment period study assessing doxycycline plasma concentrations following Doryx capsule or Doryx tablet administration. All studies were conducted in the United States. […] The design and dosing schedules are summarized in […].3. The available studies were assigned a local identifier during model development (10, 20, 30, 40, 50, 60, 70, and 80), as indicated in […].3, and will be referred to by these numbers for the remainder of the Specification.
Studies 10, 20, 30, 50, 60 and 80 were single-dose studies and plasma samples were acquired at nominal times approximate to 0, 0.25, 0.5, 1, 1.5, 2, 2.5, 3, 3.5, 4, 6, 8, 10, 12, 16, 24, 36, 48, 72 and 96 hours after the dose on day 1 of that period. Study 40 was a single treatment period multi-dose study, where participants were dosed 7 times at 24 hour intervals and plasma samples were collected at nominal times of 0, 0.25, 0.5, 1, 1.5, 2, 2.5, 3, 4, 6, 8, 10, 12, 16, 24, 144, 144.25, 144.5, 145, 145.5, 146, 146.5, 147, 148, 150, 152, 156, 160, 168, 180, 192, 216 and 240 hours after the dose on day 1. Study 70 was a two treatment period multi-dose study, where doses were given at 0, 72, 96, 120, 144 and 168 hours after the start of treatment, and plasma samples were collected at nominal times of 0, 0.25, 0.5, 1, 1.5, 2, 2.5, 3, 4, 6, 8, 10, 12, 16, 24, 36, 48, 72, 96, 120, 144, 168, 168.25, 168.5, 169, 169.5, 170, 170.5, 171, 172, 174, 176, 180, 184, 192, 204, 216 and 240 hours after the dose on day 1. Deviations between nominal sampling times and actual sample times were recorded, and the actual times were used during model development. Covariates describing fed status, formulation, sex, age, race, weight, body mass index (BMI), smoking status and study number were available for each individual.
Doxycycline plasma concentrations were measured using validated high performance liquid chromatographic methods, with the lower limits of quantification (LLOQ) of the assays indicated in […].3. All subjects with evaluable pharmacokinetic data were included in the analysis. All studies were conducted according to the International Conference of Harmonisation (ICH) guidelines for good clinical practice, the Declaration of Helsinki on the ethical conduct of medical research, and applicable regulatory requirements. Each subject signed and dated a written informed consent before study participation.
The base model was developed in a step-wise manner. Pharmacokinetic models were coded using the ADVAN5 subroutines of NONMEM. Linear kinetic models with 1, 2 and 3 compartments were evaluated, with absorption models including simple first-order absorption and “transit compartment” models with up to 5 absorption transit compartments assessed. The parameter KTR (transit absorption rate) was used to describe the first-order movement through these absorption compartments. The First Order Conditional Estimation (FOCE) method was used to fit models. […]

Turning to `C[C@H]1c2cccc(O)c2C(=O)C2=C(O)[C@]3(O)C(=O)C(C(N)=O)=C(O)[C@@H](N(C)C)[C@@H]3[C@@H](O)[C@@H]21` [doxycycline monohydrate salt], the release rates overall result in series [1] (FIG. 5) is “low release rates overall”. The release result in series [1] (acidic conditions (FIG. 5)) is listed as “releases readily”. Also, the solubility entry is listed as “very soluble” in series [2] (lower pH values (FIG. 5)) and “not very soluble” in series [2] (pH above 3 (FIG. 5)).
As for `C[C@H]1c2cccc(O)c2C(=O)C2=C(O)[C@]3(O)C(=O)C(C(N)=O)=C(O)[C@@H](N(C)C)[C@@H]3[C@@H](O)[C@@H]21` [doxycycline, (4S,4aR,5S,5aR,6R,12aS)-4-(dimethylamino)-3,5,10,12,12a-pentahydroxy-6-methyl-1,11-dioxo-1,4,4a,5,5a,6,11,12a-octahydrotetracene-2-carboxamide], in the series on Plasmodium falciparum, the “activity against asexual erythrocytic forms” value is reported as “active” and the activity against gametocytes result is on record as “not against the gametocytes”. Also, the peak serum level in series [3] (200 mg dose, at 2 hours, normal adult volunteers) was 2.6 µg/mL. Moreover, the serum level in series [3] (200 mg dose, at 24 hours) was 1450 ng/mL. In series [3] (in vivo, po), the “absorption after oral administration” value is on record as “virtually completely absorbed”. The half-life result in series [3] (in vivo) was “approximately 18 hours”. In addition, the “excretion by the kidney” value in series [3] (normal function (creatinine clearance about 75 mL/min)) was “about 40 %/72 hours”. Moreover, the “excretion by the kidney” value in series [3] (severe renal insufficiency (creatinine clearance below 10 mL/min)) is 1-5 %/72 hours. Also, the lipid solubility result in series [4] is given as “high degree of lipid solubility”. Moreover, in series [5] (final model parameter estimate), the “CL, Clearance” value was 4.63 L/h/70 kg FFM; the “CLP1, Intercompartmental clearance” value is 11.3 L/h/70 kg FFM; the “KTR, Transit compartment rate constant” value is 2 h⁻¹; the “V, Central distribution volume” value is 55.2 L/70 kg FFM. Also, in series [5] (final model parameter estimate), the “VP1, Peripheral distribution volume” value was 49.8 L/70 kg FFM. In addition, the “FTLAG2, lag on KTR (absorption) for the fed status” value in series [5] (final model, formulation non-specific) is 0.203 h. Further, the Fed-state decrease in relative bioavailability in series [5] (human, plasma, oral, final model parameter estimate, read-out: COVFEDF, Effect of food on relative bioavailability) is 10.5%. Moreover, in series [5] (in vivo), the “female sex increase in clearance” value amounted to 14.4%. Also, the “fed status decrease in relative bioavailability (F)” value in series [5] (irrespective of formulation) is reported as 10.5%.
For the compound `CC1c2cccc(O)c2C(=O)C2=C(O)[C@]3(O)C(=O)C(C(N)=O)=C(O)[C@@H](N(C)C)[C@@H]3[C@@H](O)[C@@H]21` (stereo partly drawn) [Doxycycline hyclate, [4S(4aR,5S,5aR,6R,12aS)]-4-(dimethylamino)-1,4,4a,5,5a,6,11,12a-octahydro-3,5,10,12,12a-pentahydroxy-6-methyl-1,11-deoxonapthtacene-2-carboxamide monohydrochloride, compound with ethyl alcohol (2:1), monohydrate], the solubility entry in series [4] is “soluble in water and in solutions of alkali hydroxides and carbonates”.
